Test systems include HOP-92 NSCLC; LOX IMVI melanoma; SNB-19 CNS; SK-MEL-5 melanoma; DU-145 prostate; HS 578T breast; SW-620 colon; NCI/ADR-RES ovarian; OVCAR-8 ovarian; U251 CNS; TK-10 renal; NCI-H23 lung; HCC-2998 colon; ACHN renal; SK-OV-3 ovarian; SK-MEL-2 melanoma; HT29 colon; K-562 leukemia; NCI-H522 lung; OVCAR-3 ovarian.
Holding throughout (experiment): DTP human tumour cell line panel, 48 h

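Interpolation was linear, between the two tested concentrations surrounding the appropriate level; five concentrations were tested over 48 hours in 96-well plates. At the TGI there is no net growth.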

Usually TGI stands for the concentration giving total growth inhibition. A higher TGI goes with less potent growth arrest. Consider `CC(=O)O[C@H]1[C@@H](OC(C)=O)C(C)(C)/C=C/[C@H](C)C(=O)[C@@]2(OC(C)=O)C[C@@](C)(OC(C)=O)[C@H](OC(C)=O)[C@@H]2[C@H]2OC(=O)CC[C@@]2(OC(=O)c2ccccc2)[C@@H]1OCC(C)C`, for which the TGI in the test on HOP-92 NSCLC was above 100 µM; in the test on LOX IMVI melanoma, above 100 µM; in the test on SNB-19 CNS, above 100 µM; with SK-MEL-5 melanoma, above 100 µM; in the test on DU-145 prostate, above 100 µM; in the test on HS 578T breast, 65.4 µM. The TGI in the test with SW-620 colon, with NCI/ADR-RES ovarian, with OVCAR-8 ovarian, with U251 CNS, in the test on TK-10 renal and in the test on NCI-H23 lung was above 100 µM in each case. Also, the TGI in the test with HCC-2998 colon, in the test on ACHN renal, in the test with SK-OV-3 ovarian, with SK-MEL-2 melanoma, in the test with HT29 colon and in the test on K-562 leukemia was above 100 µM throughout. In addition, the TGI in the test with NCI-H522 lung and with OVCAR-3 ovarian was above 100 µM each time.
Take `CSCCC(NC(=O)OCc1ccccc1)NC(=O)OCc1ccccc1`: the TGI in the test on HOP-92 NSCLC, in the test on LOX IMVI melanoma, in the test on SNB-19 CNS, in the test on SK-MEL-5 melanoma, in the test on DU-145 prostate and with HS 578T breast was above 100 µM each time. In addition, the TGI with SW-620 colon, in the test with NCI/ADR-RES ovarian, in the test on OVCAR-8 ovarian, in the test on U251 CNS, in the test on TK-10 renal and in the test with NCI-H23 lung was above 100 µM each time. In addition, the TGI in the test on HCC-2998 colon, with ACHN renal, in the test with SK-OV-3 ovarian, with SK-MEL-2 melanoma, with HT29 colon and in the test with K-562 leukemia was above 100 µM each time. The TGI in the test with NCI-H522 lung and in the test on OVCAR-3 ovarian was above 100 µM in each case.
